“Also recorded” adds a separate entry of the source.
Assays:
sickle cells [1] = test: Microfluidic cell sickling assay (kinetics of cell sickling) under controlled low O2 tension, cell-imaging analysis; format: cell-based, human; conditions: sickle cells from patients on HU treatment vs off HU; PaO2 15 mm Hg; FIG. 6A
Description: (§1) A study was conducted to develop and evaluate the exemplary system and method comprising microfluidic assays of sickle cell functional properties to provide quantitative assessments of disease heterogeneity and severity. A microfluidic strategy for on-chip O2 control was developed, which is critical to measure O2-dependent sickle cell functional properties. This method utilizes gas permeability of thin PDMS film (˜150 μm thick) that enables rapid diffusion of O2 at a specific PaO2 value from the gas channel to the cell channel. […]
(§2) Cell sickling events induced by exposing sickle cells to a transient hypoxia (e.g., reduce the atmospheric (atm) PaO2 to a low O2 tension level) are measured under stationary condition (FIG. 5A). […] Sickle cell rheology (deformability and occlusion) are measured under flow condition for 60 s, where sickle cells with extended delay time in HbS polymerization can escape the micro-slits but those containing rigid HbS fibers (undissolved HbS or hypoxia induced HbS fibers) lose their deformability and become trapped at the micro-slits (FIG. 5B). These two aspects of sickle cell behavior measured under controlled O2 tension (in exposure to testing PaO2 15 mm Hg briefly for 60 s) provided quantitative cell functional assessment, which show strong linear correlation to patient's HbS level, as obtained from standard HPLC (FIG. 5C and FIG. 5D). […]

sickle cells [2] = test: Microfluidic sickle cell rheology assay (occlusion/obstruction at micro-slits) under controlled low O2 tension; format: cell-based, human; conditions: sickle cells from patients with HU treatment vs without; PaO2 15 mm Hg, flow 60 s; FIG. 6B
Description: as §1, §2

fetal hemoglobin (HbF) = conditions: hematological response to HU, literature [38]; cited from earlier work
sickle cells [3] = test: Microfluidic assay of the efficacy of an anti-sickling oxygen modulator on patient samples; format: cell-based, human; conditions: blood samples of 5 patients; FIG. 6D
Source text: This, however, could not be detected using conventional hematological assay, such as Hb electrophoresis or HPLC.

SMILES	delay time of cell sickling events (sickle cells [1])	occlusion fraction (obstruction in micro-slits) (sickle cells [2])	HbF level in some patients (fetal hemoglobin (HbF))	dose dependence of anti-sickling efficacy, patient-specific response (sickle cells [3])
NC(=O)NO [HU, hydroxyurea]	significantly extended	much less obstruction	up to 40%	
O=Cc1ccc(CO)o1 [5HMF, 5-(hydroxymethyl) furfural]				patient-specific response; also recorded: dosedependence is similar among 5 patients, but significant variations exist
